≈ marks a conversion by molar mass, not a printed value. Calls of active or inactive are those of the source. The calls are words filed in the database; no cut-off is given here.
Legend:
THP-1 [1] = assay: Antiinflammatory activity in human THP1 cells assessed as inhibition of LPS-induced TNFalpha production at 1 uM treated 30 mins before LPS challenge measured after 24 hrs by ELISA; type: functional
THP-1 [2] = assay: Antiinflammatory activity in human THP1 cells assessed as inhibition of LPS-induced IL6 production at 1 uM treated 30 mins before LPS challenge measured after 24 hrs by ELISA; type: functional
THP-1 [3] = assay: Antiinflammatory activity in human THP1 cells assessed as inhibition of LPS-induced TNFalpha production at 10 uM treated 30 mins before LPS challenge measured after 24 hrs by ELISA; type: functional
THP-1 [4] = assay: Antiinflammatory activity in human THP1 cells assessed as inhibition of LPS-induced IL6 production at 10 uM treated 30 mins before LPS challenge measured after 24 hrs by ELISA; type: functional
Staphylococcus aureus = assay: Antibacterial activity against Staphylococcus aureus; type: functional
Bacillus subtilis [5] = assay: Antibacterial activity against Bacillus subtilis; type: functional
Escherichia coli = assay: Antibacterial activity against Escherichia coli; type: functional
Salmonella typhimurium [6] = assay: Antibacterial activity against Salmonella Typhimurium; type: functional, Salmonella enterica subsp. enterica serovar Typhimurium; details: Salmonella enterica
Candida albicans = assay: Antifungal activity against Candida albicans; type: functional
Aspergillus niger [7] = assay: Antifungal activity against Aspergillus niger; type: functional
Fusarium solani = assay: Antifungal activity against Fusarium solani; type: functional
Aspergillus flavus [8] = assay: Antifungal activity against Aspergillus flavus; type: functional
Bacillus subtilis [9] = assay: Antibacterial activity against Bacillus subtilis at 200 ug/ml; type: functional, organism-based
Salmonella typhimurium [10] = assay: Antibacterial activity against Salmonella Typhimurium at 200 ug/ml; type: functional, organism-based; details: Salmonella enterica subsp. enterica serovar Typhimurium
Aspergillus niger [11] = assay: Antifungal activity against Aspergillus niger at 200 ug/ml; type: functional, organism-based
Aspergillus flavus [12] = assay: Antifungal activity against Aspergillus flavus at 200 ug/ml; type: functional, organism-based

| SMILES | inhibition at 1 µM (THP-1 [1]) [%] | inhibition at 1 µM (THP-1 [2]) [%] | inhibition at 10 µM (THP-1 [3]) [%] | inhibition at 10 µM (THP-1 [4]) [%] | MIC (Staphylococcus aureus) [µg/mL] | MIC (Bacillus subtilis [5]) [µg/mL] | MIC (Escherichia coli) [µg/mL] | MIC (Salmonella typhimurium [6]) [µg/mL] | MIC (Candida albicans) [µg/mL] | MIC (Aspergillus niger [7]) [µg/mL] | MIC (Fusarium solani) [µg/mL] | MIC (Aspergillus flavus [8]) [µg/mL] | Activity (Bacillus subtilis [9]) | Activity (Salmonella typhimurium [10]) | Activity (Aspergillus niger [11]) | Activity (Aspergillus flavus [12]) |
| --- | --- | --- | --- | --- | --- | --- | --- | --- | --- | --- | --- | --- | --- | --- | --- | --- |
| C[C@@H]1C[C@H]2[C@@H]3CCC4=CC(=O)C=C[C@]4(C)[C@@]3(F)[C@@H](O)C[C@]2(C)[C@@]1(O)C(=O)CO [DEXAMETHASONE] | 71 | 84 |  |  |  |  |  |  |  |  |  |  |  |  |  |  |
| CCOC(=O)C1=C(C)NC(=S)NC1c1ccc(NC(=O)Nc2ccccc2C(F)(F)F)cc1 (stereo not given) |  |  | 10 | 27 | 25 (≈ 52.2 µM) | 25 (≈ 52.2 µM) | 15 (≈ 31.3 µM) | 30 (≈ 62.7 µM) | 25 (≈ 52.2 µM) | 40 (≈ 83.6 µM) | 30 (≈ 62.7 µM) | 30 (≈ 62.7 µM) |  |  |  |  |
| CCOC(=O)C1=C(C)NC(=S)NC1c1ccc(NC(=O)Nc2cc(C(F)(F)F)ccc2Cl)cc1 (stereo not given) |  |  | 68 | 92 | 55 (≈ 107 µM) | 85 (≈ 166 µM) | 80 (≈ 156 µM) | 90 (≈ 175 µM) | 60 (≈ 117 µM) | 80 (≈ 156 µM) | 85 (≈ 166 µM) | 90 (≈ 175 µM) |  |  |  |  |
| CCOC(=O)C1=C(C)NC(=S)NC1c1ccc(NC(=O)Nc2ccccc2OC(F)(F)F)cc1 (stereo not given) |  |  | 20 | 60 | 30 (≈ 60.7 µM) | 30 (≈ 60.7 µM) | 25 (≈ 50.6 µM) | 20 (≈ 40.4 µM) | 15 (≈ 30.3 µM) | 20 (≈ 40.4 µM) | 15 (≈ 30.3 µM) | 15 (≈ 30.3 µM) |  |  |  |  |
| CCOC(=O)C1=C(C)NC(=S)NC1c1ccc(NC(=O)Nc2c(C)cccc2Cl)cc1 (stereo not given) |  |  | 2 | 11 | 40 (≈ 87.2 µM) | 65 (≈ 142 µM) | 55 (≈ 120 µM) | 80 (≈ 174 µM) | 40 (≈ 87.2 µM) | 55 (≈ 120 µM) | 40 (≈ 87.2 µM) | 40 (≈ 87.2 µM) |  |  |  |  |
| CCOC(=O)C1=C(C)NC(=S)NC1c1ccc(NC(=O)Nc2c(F)cccc2C(F)(F)F)cc1 (stereo not given) |  |  | 0 | 27 | 55 (≈ 111 µM) | 40 (≈ 80.6 µM) | 40 (≈ 80.6 µM) | 60 (≈ 121 µM) | 55 (≈ 111 µM) | 30 (≈ 60.4 µM) | 60 (≈ 121 µM) | 60 (≈ 121 µM) |  |  |  |  |
| CCOC(=O)C1=C(C)NC(=S)NC1c1ccc(NC(=O)Nc2ccc(C(F)(F)F)cc2Cl)cc1 (stereo not given) |  |  | 16 | 73 | 35 (≈ 68.2 µM) | 35 (≈ 68.2 µM) | 25 (≈ 48.7 µM) | 55 (≈ 107 µM) | 35 (≈ 68.2 µM) | 40 (≈ 78 µM) | 60 (≈ 117 µM) | 35 (≈ 68.2 µM) |  |  |  |  |
| CCOC(=O)C1=C(C)NC(=S)NC1c1ccc(NC(=O)Nc2ccc(OC)cc2)cc1 (stereo not given) |  |  | 0 | 42 | 15 (≈ 34.1 µM) | 20 (≈ 45.4 µM) | 15 (≈ 34.1 µM) | 45 (≈ 102 µM) | 10 (≈ 22.7 µM) | 25 (≈ 56.8 µM) | 30 (≈ 68.1 µM) | 30 (≈ 68.1 µM) |  |  |  |  |
| CCOC(=O)C1=C(C)NC(=S)NC1c1ccc(NC(=O)Nc2c(F)cccc2Cl)cc1 (stereo not given) |  |  | 0 | 36 | 65 (≈ 140 µM) | 55 (≈ 119 µM) | 85 (≈ 184 µM) | 85 (≈ 184 µM) | 40 (≈ 86.4 µM) | 60 (≈ 130 µM) | 80 (≈ 173 µM) | 90 (≈ 194 µM) |  |  |  |  |
| CCOC(=O)C1=C(C)NC(=S)NC1c1ccc(NC(=O)Nc2ccc(F)c(Cl)c2)cc1 (stereo not given) |  |  | 3 | 40 | 60 (≈ 130 µM) |  | 85 (≈ 184 µM) |  | 80 (≈ 173 µM) |  | 95 (≈ 205 µM) |  | inactive | inactive | inactive | inactive |
| CCOC(=O)C1=C(C)NC(=S)NC1c1ccc(N)cc1 (stereo not given) |  |  | 0 | 3 | 40 (≈ 137 µM) | 55 (≈ 189 µM) | 40 (≈ 137 µM) | 60 (≈ 206 µM) | 55 (≈ 189 µM) | 40 (≈ 137 µM) | 45 (≈ 154 µM) | 60 (≈ 206 µM) |  |  |  |  |
| O=C(O)c1cn(C2CC2)c2cc(N3CCNCC3)c(F)cc2c1=O [CIPROFLOXACIN] |  |  |  |  |  | 25 (≈ 75.4 µM) | 15 (≈ 45.3 µM) | 25 (≈ 75.4 µM) |  |  |  |  |  |  |  |  |
| CCOC(=O)C1=C(C)NC(=S)NC1c1ccc(NC(=O)Nc2ccccc2Oc2ccccc2)cc1 (stereo not given) |  |  | 0 | 36 | 40 (≈ 79.6 µM) | 55 (≈ 109 µM) | 35 (≈ 69.6 µM) | 40 (≈ 79.6 µM) | 40 (≈ 79.6 µM) | 60 (≈ 119 µM) | 30 (≈ 59.7 µM) | 30 (≈ 59.7 µM) |  |  |  |  |

— ChEMBL document CHEMBL1806424, “The novel 3,4-dihydropyrimidin-2(1H)-one urea derivatives of N-aryl urea: synthesis, anti-inflammatory, antibacterial and antifungal activity evaluation” (2011)
